Entries after “also recorded” stand apart in the source; their conditions may differ.
Legend:
[1] = tested on: mice (BALB/c); experiment: Elevated plus maze (EPM), anxiety-like behavior
[2] = tested on: mice (BALB/c); experiment: Tail suspension test (TST), psilocybin loading dose then psilocybin+CBD+6 MB maintenance
[3] = psilocybin: loading dose 5 mg/kg alone, combination: given after the psilocybin loading dose

[3-(2-dimethylaminoethyl)-1H-indol-4-yl] dihydrogen phosphate [psilocybin]
percentage of time spent in open space (open arms of the EPM) ([1]; Day 14, two weeks after psilocybin loading dose 5 mg/kg, vs vehicle control, FIG. 2, 5 mg/kg): significantly increased; also recorded: more time | anxiety in mouse models [1, 3]: decreased | immobile posture time in TST ([2]; Day 15, psilocybin loading dose 5 mg/kg on Day 1, FIG. 4A): decreased | depression / depressive symptoms in mouse models [2, 3]: decreased | time spent immobile in TST ([2]; three weeks after 5 mg/kg loading dose of psilocybin (Day 22), loading dose only): significant decrease
